Reference: patent US20020107197A1, “Ligands for G protein coupled receptors and methods of using them” (priority 2000, published 2002)
Bridges are numbered along the chain shown (N, C = ends). Where no end group is shown, it is not given here.

Columns and labels:
GPR4 [1] = target: T1, GPR4 (Homo sapiens, UniProt P46093); assay: Radioligand binding to homogenates of GPR4-transfected CHO cells; settings: cold competitors, GPR4-transfected CHO cell homogenates
T1 construct: were used to generate full length GPR4, which was digested with EcoRI and Xba I and cloned into the pBs3HA vector; expressed in transfected cells
T1 sequence (P46093 whole entry): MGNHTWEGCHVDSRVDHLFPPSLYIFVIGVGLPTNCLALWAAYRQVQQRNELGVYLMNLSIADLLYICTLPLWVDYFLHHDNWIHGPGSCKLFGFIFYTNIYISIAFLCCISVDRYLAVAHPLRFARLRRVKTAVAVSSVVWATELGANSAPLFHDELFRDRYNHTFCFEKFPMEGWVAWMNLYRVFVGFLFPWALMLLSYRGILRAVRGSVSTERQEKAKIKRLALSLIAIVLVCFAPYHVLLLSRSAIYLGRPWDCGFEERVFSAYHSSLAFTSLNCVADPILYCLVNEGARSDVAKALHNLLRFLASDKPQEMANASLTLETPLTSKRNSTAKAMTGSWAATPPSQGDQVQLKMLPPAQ
Description: (§1) To characterize the binding of SPC and LPC to GPR4 and TDAG8, we conducted radioligand binding assays. CHO cells were chosen for GPR4 binding assays, since HEK293 cells express relatively high levels of endogenous GPR4. CHO cells stably transfected with empty vector or GPR4 were serum starved for 20 h, then collected after exposure to 2 mM EDTA in PBS. The pelleted cells were stored at −80° C. until use. Binding assays were performed essentially as described previously (Xu et al. (2000) Nat Cell Biol 2, 261-267), except binding was performed at 4° C. Briefly, frozen cells (10^6 cells/ml) were homogenized in a binding buffer. Assays were performed in 96-well plates in triplicate with 100 μl cell homogenate (equivalent to 10^5 cells/well). Different amounts of [^3H]SPC or [^3H]16:0-LPC were added to the cell homogenates in 50 μl of binding buffer, in the presence or absence of cold SPC or 16:0-LPC, or other competitors. The plates were incubated at 4° C. for 120 min, unless otherwise indicated. Cell-bound [^3H]SPC or [^3H]LPC was collected onto a filter (Printed Filtermat A, Wallac, Gaithersburg, Md.) using an automated cell harvester (HARVESTER 96, Tomtec, Orange, Conn.). Specific binding was calculated by subtraction of nonspecific binding (binding detected in the presence of 100-fold excess unlabeled SPC or 16:0-LPC) from the total binding.
Cell homogenates were used for binding assays. Binding was conducted at 4° C. for 120 min or as indicated. [^3H]SPC and [^3H]16:0-LPC specifically bound to cell homogenates from GPR4-transfected CHO cells in a time-dependent manner and reached equilibrium after 60 min incubation at 4° C. […] The maximum binding capacities for SPC and 16:0-LPC were 996 fmole/10^5 cells for SPC and 1,528 fmole/10^5 cells for 16:0-LPC. […] Binding assays using [^3H]18:0-LPC gave similar results. We also tested the four glycosphingolipids, Psy, Glu-Sph, Gal-Cer, and Lac-Cer, for their ability to compete for the binding of [^3H]SPC and [^3H]16:0-LPC to GPR4.

GPR4 [2] = target: T1, GPR4; assay: ERK MAP kinase activation (phospho-ERK Western blot) in GPR4-infected Swiss 3T3 cells; type: cell-based; settings: GPR4-ires-GFP vs GFP Swiss 3T3 cells; SPC and LPC 100 nM
Description: MAP kinases are key signaling intermediates of DNA synthesis and cell proliferation. Swiss 3T3 cells were infected with MSCV GPR4-ires-GFP or MSCV ires-GFP, and subsequently cells sorted by FACS for positive expression of GFP as described previously (Kabarowski et al. (2000) Proc Natl Acad Sci USA. 97, 12109-12114). Cells were plated in 6-well plates in DMEM containing 5% FBS, serum-starved overnight, and then treated lipids in DMEM for the indicated times. Cells were lysed on ice in RIPA buffer containing 50 mM Tris-HCl, pH 7.5, 1% Nonidet P-40, 0.5% deoxycholate,0.1% SDS, 150 mM NaCl, 2 mM EGTA, 25 mM sodium fluoride, 1 mM sodium orthovanadate, and 1× protease inhibitors (Sigma P8340). Lysates containing equal amounts of protein were separated on 10% SDS-polyacrylamide gels and transferred onto nitrocellulose membranes. Antibodies against phosphorylated ERK1/2 (Cell Signaling Technologies; Beverly, Mass.) were used to probe the membrane and the ECL system (Amersham) was used for detection. To normalize the amounts of protein loaded in each lane, membranes were stripped and re-probed with antibodies against total ERK (Cell Signaling Technologies). In some experiments, cells were pretreated with 100 ng/ml PTX for 12-16 h prior to SPC and LPC stimulation.

TDAG8 [3] = target: T2, TDAG8 (Homo sapiens, UniProt Q8IYL9); assay: SRE luciferase reporter in TDAG8-transfected HEK293 cells; type: cell-based; settings: TDAG8 cotransfection
T2 construct: expressed in transfected cells
T2 sequence (Q8IYL9 whole entry): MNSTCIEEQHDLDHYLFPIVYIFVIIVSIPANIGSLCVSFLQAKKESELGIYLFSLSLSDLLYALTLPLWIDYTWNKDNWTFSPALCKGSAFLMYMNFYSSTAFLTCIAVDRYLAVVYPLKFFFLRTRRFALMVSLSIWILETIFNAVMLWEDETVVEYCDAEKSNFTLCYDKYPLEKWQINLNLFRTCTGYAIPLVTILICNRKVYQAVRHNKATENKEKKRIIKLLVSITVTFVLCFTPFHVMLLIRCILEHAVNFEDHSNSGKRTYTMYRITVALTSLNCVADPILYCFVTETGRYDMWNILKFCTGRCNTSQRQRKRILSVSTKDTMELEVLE

GPR4 [4] = target: T1, GPR4; assay: SRE luciferase reporter in GPR4-transfected HEK293 cells; type: cell-based; settings: GPR4 cotransfection
Description: (§2) The serum-response element (SRE) reporter system is a sensitive assay for receptors of lipid factors (An et al. (1998) J Biol Chem 273, 7906-7910; An et al. (1999) Mol Pharmacol 55, 787-794). The SRE reporter system used herein (pSRE-Luc) was a gift from Dr. Songzhu An (UCSF), or may be purchased from Stratagene (La Jolla, Calif.). Both systems give identical results. HEK293 and HEK293GPR4 cells were cultured in RPMI1640 with 10% FBS in 10 cm dishes to ˜85% confluence. To the cells in each dish, pSRE-Luc (10 μg) was transfected in the presence of 60 μl LipofectAMINE reagent. Cells were seeded in 96-well plates 16 h after transfection, incubated for another 24 h in RPMI1640 with 10% FBS, and starved in serum-free medium for 16 h. SPC (dissolved in PBS to 10 mM) and other lipids (LPCs were dissolved in 70% ethanol. Other lipids were dissolved in PBS, 70-95% ethanol, or 100% MeOH) were diluted in serum free RPMI 1640 and added to the cells, followed by a 10 h incubation. Luciferase activity was measured in Microlite™ 1 plates (DYNEX Technologies, Inc., Virginia) using 60 μl of cell lysate and 20 μl luciferase substrate. PTX (100 ng/ml) was added during the 16 h serum starvation period and pcDNA1-C3 (encoding the C3-exoenzyme, 2 μg) was co-transfected with pSRE-Luc (10 μg). All experiments were performed in quadruplicate and were repeated at least three times. The Student's t test was performed using the GraphPad Instat software (San Diego, Calif.). p<0.05 was considered to be statistically significant.

GPR4 [5] = target: T1, GPR4; assay: Cell migration in modified Boyden chamber, GPR4-ires-GFP vs GFP Swiss 3T3 cells; type: cell-based; settings: for chemokinetic assay: cell motility vs controls: lipid 100 nM in both upper and lower chambers, GFP or GFP-GPR4 Swiss 3T3 cells
Description: Chemotaxis was measured in a modified Boyden chamber assay. Briefly, different lipids were added to the lower chambers. GPR4-ires-GFP- and GFP-Swiss 3T3 cells were serum starved for 4 h, trypsinized, and seeded in the upper chambers of Boyden-transwell plates (Corning Inc., Corning, N.Y.). The chambers were incubated for 6 to 8 h. The number of cells that migrated to the lower face of the membrane was counted in 4 random fields. Data are represented as the average ±SD of three independent experiments. For the chemokinetic assay, the same concentrations of lipids were added to both the upper and lower chambers. For Rho inhibition studies, C3-exoenxyme was transiently transfected into Swiss 3T3 cells and cell migration assays were performed 48 hours later.

[6] = system: vector-transfected HEK293 cells; assay: SRE luciferase reporter in vector-transfected HEK293 cells; type: cell-based, human
Description: as §2

TDAG8 [7] = target: T2, TDAG8; assay: Binding of phospholipids to TDAG8
Description: as §1
Using functional and binding assays, we have identified the ligands for TDAG8.

GPR4 [8] = target: T1, GPR4; assay: Internalization of GPR4-GFP in HEK293 cells (confocal microscopy); type: cell-based; settings: 1 μM lipid, 37° C., GPR4-GFP HEK293 cells
Description: pGPR4-GFP stably expressing HEK293 cells were cultured in 6 cm tissue culture dishes in RPMI1640 with 10% FBS. After 16-24 h serum starvation, cells were treated with different lipids at 37° C. for 2 h. Cells were washed with cold PBS and fixed with 4% paraformaldehyde in PBS. The subcellular localization of GPR4-GFP protein was visualized under a Leica TV confocal fluorescence microscope with a 63× oil immersion lens (Wetzler, Heidelberg, Germany). The excitation and emission wavelengths were 488 nm and 515-540 nm, respectively.
G protein coupled receptors undergo agonist-dependent desensitization and internalization. When HEK293 cells are transfected with the pEGFP-N1 vector, GFP protein is expressed in the cytosol of the cells. The GPR4-GFP and TDAG8-GFP fusion proteins, on the other hand, was expressed only on the plasma membrane.

TDAG8 [9] = target: T2, TDAG8; assay: TDAG8 receptor internalization; type: cell-based
Source text: G protein coupled receptors undergo agonist-dependent desensitization and internalization.

HEY ovarian cancer cells = assay: DNA synthesis / growth of HEY ovarian cancer cells with SPC and phage preparations; type: cell-based, human; settings: phage mixed with SPC, 30 min incubation
Description: To determine if these selected phage clones were capable of blocking a biological effect of SPC, we mixed phage preparations with SPC. After a 30 min incubation, this mixture was added to HEY cells and its effect on SPC-induced cell proliferation was tested. If a phage clone was carrying a specific sequence which binds to SPC, the addition of the phage to SPC could block the effect of SPC on HEY cells.

Row | competition for binding of [3H]SPC and [3H]16:0-LPC to GPR4 (GPR4 [1]) | transcriptional activation of SRE (in words) (TDAG8 [3]) | transcriptional activation of SRE (in words) (GPR4 [4]) | cell migration in GPR4- vs. vector-transfected cells (in words) (GPR4 [5]) | chemokinetic assay: cell motility vs controls (GPR4 [5]) | Compound | GPR4-dependent ERK activation (in words) (GPR4 [2]) | transcriptional activation of SRE (in words) [6] | binding to TDAG8 (TDAG8 [7]) | internalization of GPR4 (GPR4 [8]) | TDAG8 receptor internalization (TDAG8 [9]) | effect of phage on the growth inhibitory effect of SPC (HEY ovarian cancer cells) | effect of phage on the growth inhibitory effect of SPC (HEY ovarian cancer cells; listed as clone 414) | effect of phage on the growth inhibitory effect of SPC (HEY ovarian cancer cells; listed as phage 414)
1 | not | not altered | not altered | did not alter cell migration | slightly inhibited | CCCCCCCCCCCCC/C=C/[C@@H](O)[C@@H](N)COP(=O)(O)O [S1P, sphingosine-1-phosphate] | activation was independent of GPR4 expression | induced significant transcriptional activation of SRE | – | – | – | – | – | –
2 | – | – | – | – | – | Cys-His-Thr-Gln-Ala-Asp-Ser-Cys (CHTQADSC; disulfide 1-8) [#414] | – | – | – | – | – | able to inhibit the growth inhibitory effect of SPC on HEY cells | inverted the growth inhibitory effect of SPC | blocked the growth inhibitory effect of SPC on DNA synthesis
3 | not | not altered | not altered | did not alter cell migration | did not show a significant effect | lysophosphatidic acid [LPA] | – | induced significant transcriptional activation of SRE | – | – | – | – | – | –

Row | Compound | competition for binding of [3H]SPC and [3H]16:0-LPC to GPR4 (GPR4 [1]) | transcriptional activation of SRE (in words) (TDAG8 [3]) | transcriptional activation of SRE (in words) (GPR4 [4]) | cell migration in GPR4- vs. vector-transfected cells (in words) (GPR4 [5]) | chemokinetic assay: cell motility vs controls (GPR4 [5]) | GPR4-dependent ERK activation (in words) (GPR4 [2]) | transcriptional activation of SRE (in words) [6] | binding to TDAG8 (TDAG8 [7]) | internalization of GPR4 (GPR4 [8]) | TDAG8 receptor internalization (TDAG8 [9]) | effect of phage on the growth inhibitory effect of SPC (HEY ovarian cancer cells) | effect of phage on the growth inhibitory effect of SPC (HEY ovarian cancer cells; listed as clone 414) | effect of phage on the growth inhibitory effect of SPC (HEY ovarian cancer cells; listed as phage 414)
4 | platelet activating factor [PAF] | not | – | none of them induced significant transcriptional activation of SRE | did not alter cell migration | slightly enhanced | activation was independent of GPR4 expression | – | able to bind to TDAG8 | not | induced TDAG8 receptor internalization | – | – | –
